Data on four compounds can be found in publication doi:10.1101/2024.03.08.584059, “AllTheBacteria: a community resource empowers biology and discovers novel peptide antibiotics” (bioRxiv, 2026).

In brackets after ≈: the same amount, converted by molar mass. Ends that are not written are not given here.

For series [1], the system named is E. coli isolates. The note with it: strain not named. As to the method:
(§1) Figure 4. […] Briefly, 10[5] bacterial cells were incubated with serially diluted peptides (0–64 μmol L^−1) at 37 °C. Bacterial growth was assessed by measuring the optical density at 600 nm in a microplate reader one day post-treatment.

For series [2], the system named is A. baumannii ATCC 19606. Kind of series: Skin abscess infection mouse model. The note with it: CD-1 mice; for reduction of bacterial burden relative to untreated controls: single topical dose at 10×MIC. The format is in vivo, Acinetobacter baumannii. On the procedure: (§2) Figure 5. Anti-infective activity of a lead ATB peptide in a murine infection model. […] The limit of detection (LOD) for the CFU quantification is log10 CFU = 2. Bacterial burdens are shown as violin plots with individual data points overlaid; each point represents one animal. The horizontal line within each violin indicates the mean, and violin width reflects the distribution of values within each group. Statistical comparisons were performed separately for each time point using ordinary one-way ANOVA followed by Dunnett’s two-sided multiple comparisons test versus the control group. Exact p-values are shown above the indicated comparisons. (Panel a created in BioRender.)
(§3) The back of six-week-old female CD-1 mice under anesthesia were shaved and injured with a superficial linear skin abrasion made with a needle. An aliquot of A. baumannii ATCC 19606 (1.1×10^6 CFU mL^−1; […]) previously grown in LB medium until 0.5 OD mL^−1 (optical value at 600 nm) and then washed twice with sterile PBS (pH 7.4, 9,391 ģ for 3 min) was added to the scratched area. […] Two- and four-days post-infection, animals were euthanized, and a uniform excision of the scarified skin was excised, homogenized using a bead beater (25 Hz for 20 min), 10-fold serially diluted, and plated on McConkey agar plates for CFU quantification. The experiments were performed using six mice per group. Mice were single-housed to avoid cross-contamination and maintained under a 12-hour light/dark cycle at 22 °C with humidity controlled at 50%. The skin abscess infection mouse model was revised and approved by the University Laboratory Animal Resources (ULAR) from the University of Pennsylvania (Protocol 806763).
In the mouse experiments, all the raw data were log10 transformed and the statistical significance was determined using one-way ANOVA followed by Dunnett’s test. All the p values are shown for each of the groups, all groups were compared to the untreated control group. […] Statistical significance between different groups was calculated using the tests indicated in each figure legend. […]

The nature of series [3]: Mouse weight monitoring in skin abscess model. Type of series: in vivo. The note with it: CD-1 mice, 4 days total, single topical dose at 10×MIC, in words. As to the method:
as §2
as §3, with “Mice were single-housed to avoid cross-contamination and maintained under a 12-hour light/dark cycle at 22 °C with humidity controlled at 50%. The skin abscess infection mouse model was revised and approved by the University Laboratory Animal Resources (ULAR) from the University of Pennsylvania (Protocol 806763).” left out

Series [4] has as its system 20 clinically relevant Gram-negative and Gram-positive bacterial strains. Kind of series: Antibacterial profiling across the panel. The format is cell-based. The note with it: in words; 20-strain MIC panel. The source says: We first compared the predicted AllTheBacteria (here abbreviated ATB) peptides with antimicrobial peptides curated in widely used databases (see Supp. Note 3, Supp. Figs 10-13). ATB peptides were enriched in basic residues, particularly lysine and arginine, and many also contained hydrophobic or aromatic residues, including leucine, isoleucine, and tryptophan. These features are consistent with electrostatic engagement of bacterial envelopes and potential membrane interaction. From this prioritized pool, we selected 24 peptides (Supp. Table 1) for chemical synthesis and experimental validation. The selected panel included highly cationic low-complexity sequences, mixed hydrophobic–cationic architectures and tryptophan-rich motifs, allowing us to test whether distinct classes of ATB-derived encrypted peptides translate into antibacterial activity. The 24 synthesized peptides were profiled against 20 clinically relevant Gram-negative and Gram-positive bacterial strains, including antibiotic-resistant ones (Fig. 4). Antibacterial activity was most pronounced against Gram-negative species, including Acinetobacter baumannii, Escherichia coli, Enterobacter cloacae, Klebsiella pneumoniae, and Pseudomonas aeruginosa.
Figure 4. […] Bacterial growth was assessed by measuring the optical density at 600 nm in a microplate reader one day post-treatment.

Series [5] has as its system human embryonic kidney (HEK293T) cells. The note with it: 24 h. As to the method:
The cells were cultured in high-glucose Dulbecco’s modified Eagle’s medium supplemented with 1% penicillin and streptomycin (antibiotics) and 10% fetal bovine serum and grown at 37 °C in a humidified atmosphere containing 5% CO2.
One day prior to the experiment, 100 μL aliquots of human embryonic kidney (HEK293T) cells, at a concentration of 50,000 cells per mL, were seeded into each well of 96-well plates (5,000 cells per well). Following cell attachment, the HEK293T cells were treated with increasing concentrations of peptides (ranging from 8 to 128 μmol L^−1) and incubated for 24 h. After the exposure period, cytotoxicity was assessed using the 3-(4,5-dimethylthiazol-2-yl)-2,5-diphenyltetrazolium bromide (MTT) assay. Specifically, the MTT reagent was prepared at a concentration of 0.5 mg mL^−1 in phenol red-free medium and used to replace the peptide-containing supernatants (100 μL per well). The plates were then incubated for 4 h at 37 °C in a humidified atmosphere with 5% CO2, facilitating the formation of insoluble formazan crystals. These crystals were subsequently dissolved in 0.04 mol L^−1 hydrochloric acid prepared in anhydrous isopropanol. Absorbance was measured at 570 nm using a spectrophotometer to quantify cell viability. All experiments were conducted in triplicate (three biological replicates).
To evaluate the safety profile of the ATB peptides, we measured their cytotoxicity against human embryonic kidney (HEK293T) cells using a 3-(4,5-dimethylthiazol-2-yl)-2,5-diphenyltetrazolium bromide (MTT) viability assay and determined half-maximal cytotoxic concentrations (CC50). […]
index as the ratio CC50 (HEK293T) / MIC against A. baumannii ATCC 19606.

The test system of series [6] is K. pneumoniae ATCC 13883. Briefly: microbe, parasite or virus in culture. The settings on record: Klebsiella pneumoniae, ATCC13883, 24 h, read-out: Minimal Inhibitory Concentration, K. pneumoniae ATCC 13883 (-). On the procedure: as §1
For series [7], the system named is E. cloacae ATCC 13047. Briefly: microbe, parasite or virus in culture. The settings on record: Enterobacter cloacae, ATCC13047, 24 h, read-out: Minimal Inhibitory Concentration, E. cloacae ATCC 13047 (-). As to the method: as §1
Series [8] has as its system E. coli ATCC BAA-3170. Briefly: microbe, parasite or virus in culture. The note with it: Escherichia coli, ATCCBAA3170, 24 h, read-out: Minimal Inhibitory Concentration, E. coli ATCC BAA-3170 (-) - CRE. As to the method: as §1
Series [9] has as its system P. aeruginosa PA14. Briefly: microbe, parasite or virus in culture. The settings on record: Pseudomonas aeruginosa, PA14, 24 h, read-out: Minimal Inhibitory Concentration, P. aeruginosa PA14 (-). On the procedure: as §1
Series [10] relates to S. enterica Typhimurium ATCC 700720. Kind of series: microbe, parasite or virus in culture. The settings on record: Salmonella enterica, ATCC700720|TYPHIMURIUM, 24 h, read-out: Minimal Inhibitory Concentration, S. enterica Typhimurium ATCC 700720. As to the method:
as §1

For series [11], the system named is S. aureus ATCC BAA-1556 (MRSA). Briefly: microbe, parasite or virus in culture. The settings on record: Staphylococcus aureus, ATCCBAA1556|MRSA, 24 h, read-out: Minimal Inhibitory Concentration, S. aureus ATCC BAA-1556 - MRSA (+). On the procedure: as §1
The subject of series [12] is E. coli ATCC 11775. Kind of series: microbe, parasite or virus in culture. The note with it: Escherichia coli, ATCC11775, 24 h, read-out: Minimal Inhibitory Concentration, E. coli ATCC 11775 (-). On the procedure:
as §1

Series [13] has as its system A. baumannii ATCC BAA-1605. Kind of series: microbe, parasite or virus in culture. The settings on record: Acinetobacter baumannii, ATCCBAA1605, 24 h, read-out: Minimal Inhibitory Concentration, A. baumannii ATCC BAA-1605 (-) - CGTPACCIMRA
On the procedure:
as §1

Series [14] relates to K. pneumoniae ATCC BAA-2342. Briefly: microbe, parasite or virus in culture. The note with it: Klebsiella pneumoniae, ATCCBAA2342, 24 h, read-out: Minimal Inhibitory Concentration, K. pneumoniae ATCC BAA-2342 (-) - EIRK. As to the method:
as §1

Series [15] deals with S. enterica ATCC 9150. Kind of series: microbe, parasite or virus in culture. The settings on record: Salmonella enterica, ATCC9150, 24 h, read-out: Minimal Inhibitory Concentration, S. enterica ATCC 9150 (-). On the procedure: as §1
In series [16] the test system is S. aureus ATCC 12600. Briefly: microbe, parasite or virus in culture. The note with it: Staphylococcus aureus, ATCC12600, 24 h, read-out: Minimal Inhibitory Concentration, S. aureus ATCC 12600 (+). As to the method:
as §1

In series [17] the test system is E. coli K-12 BW25113. Briefly: microbe, parasite or virus in culture. The note with it: Escherichia coli, BW25113, 24 h, read-out: Minimal Inhibitory Concentration, E. coli K-12 BW25113 (-). As to the method:
as §1

Series [18] relates to A. baumannii ATCC 19606. Kind of series: microbe, parasite or virus in culture. The settings on record: Acinetobacter baumannii, ATCC19606, 24 h, read-out: Minimal Inhibitory Concentration, A. baumannii ATCC 19606 (-). On the procedure: as §1
Series [19] deals with P. aeruginosa PAO1. Kind of series: microbe, parasite or virus in culture. The note with it: Pseudomonas aeruginosa, PAO1, 24 h, read-out: Minimal Inhibitory Concentration, P. aeruginosa PAO1 (-). As to the method:
as §1

For series [20], the system named is B. subtilis ATCC 23857. Briefly: MIC, broth microdilution. The settings on record: Bacillus subtilis, ATCC23857, 24 h, Fig. 4 heat map, LB, 0–64 μmol L^−1, 37 °C, one day, OD600, mode of replicates, read-out: Minimal Inhibitory Concentration, B. subtilis ATCC 23857 (+). Type of series: cell-based. As to the method: as §1
(In general: Broth dilution looks for growth in wells or tubes with falling amounts of substance.)

The subject of series [21] is E. faecalis ATCC 700802 (VRE). Briefly: MIC, broth microdilution. The format is cell-based. The settings on record: Enterococcus faecalis, 24 h, Fig. 4 heat map, vancomycin-resistant, LB, 0–64 μmol L^−1, 37 °C, one day, OD600, mode of replicates, read-out: Minimal Inhibitory Concentration, E. faecalis ATCC 700802 - VRE (+). On the procedure: as §1
Series [22] has as its system E. coli AIC222. Kind of series: microbe, parasite or virus in culture. The format is cell-based. The settings on record: Escherichia coli, AIC222, 24 h, read-out: Minimal Inhibitory Concentration, E. coli AIC222 - CRE (-). As to the method: as §1
Series [23] deals with E. coli AIC221. Briefly: MIC, broth microdilution. The settings on record: Escherichia coli, AIC221, 24 h, read-out: Minimal Inhibitory Concentration, E. coli AIC221 (-). Type of series: cell-based. On the procedure:
Figure 4. Antimicrobial activity of APEX-predicted AllTheBacteria peptides. Heat map displaying the antimicrobial activities (μmol L^−1) of ATB peptides (rows) against 20 clinically relevant pathogens (columns) , including antibiotic-resistant strains. Briefly, 10[5] bacterial cells were incubated with serially diluted peptides (0–64 μmol L^−1) at 37 °C. Bacterial growth was assessed by measuring the optical density at 600 nm in a microplate reader one day post-treatment.

Take “MRRRGWKVRLKRRRGWKVRLMRRRGWKVRLKRRRLVLPVWA-OH [ATB9]”: in [1], the “MIC, E. coli” value is 4 µM.

As for “MKLWKIVRFLALSKGAKALRKKPVRKAAASFVKSYALWKYIRRK-OH [ATB20]”, in [2] (single dose at 10xMIC post-infection, compared to untreated control), the “time for which proliferation of the infection was inhibited after treatment” value is “up to 4 days”. For the same compound, the “reduction of bacterial burden relative to untreated controls” value in series [2] (day 4, n = 6) is given as ~ 1.5 log; in series [2] (two days after infection, n = 6) it was ~ 2 log. Besides, in series [3], the mouse body weight result was “remained stable”.

As for “MKKLKIKKLKIKKLKIKKLKIKNLKIKKLKIKNLKI-OH [ATB15]”, the “antibacterial activity across the panel” value in series [4] was “limited measurable activity”. In series [5], the “half-maximal cytotoxic concentration (CC50)” value is 9 to 12 µM.

As for `C[C@H]1COc2c(N3CCN(C)CC3)c(F)cc3c(=O)c(C(=O)O)cn1c23` [Levofloxacin], the MIC in series [6] was found to be 0.1 µM (≈ 0.0361 µg/mL); in [7], 0.1 µM (≈ 0.0361 µg/mL); in series [8], 0.1 µM (≈ 0.0361 µg/mL); in [9], 0.5 µM (≈ 0.181 µg/mL); in [10], 0.5 µM (≈ 0.181 µg/mL); in [11], 4 µM (≈ 1.45 µg/mL). For the same compound, the MIC in series [12] came to 0.1 µM (≈ 0.0361 µg/mL); in series [13], 64 µM (≈ 23.1 µg/mL); in series [14], 0.1 µM (≈ 0.0361 µg/mL); in [15], 0.1 µM (≈ 0.0361 µg/mL); in series [16], 4 µM (≈ 1.45 µg/mL); in series [17] it was 0.1 µM (≈ 0.0361 µg/mL). The MIC in series [18] is 0.3 µM (≈ 0.108 µg/mL); in series [19], 4 µM (≈ 1.45 µg/mL); in series [20], 0.1 µM (≈ 0.0361 µg/mL); in series [21], 1 µM (≈ 0.361 µg/mL); in series [22] it was 0.1 µM (≈ 0.0361 µg/mL); in series [23], 0.1 µM (≈ 0.0361 µg/mL).
